Where a SMILES comes first, the peptide text is derived from it. [ ]: non-standard residue; d: D form. dPhe(4-Cl) = N[C@H](Cc1ccc(Cl)cc1)C(=O)O; Deg = CCC(N)(CC)C(=O)O
Assays:
Type in all cases: cell-based, human
Conditions in all cases: 72 hours
[1] = test system: SW620 (colon); assay: MTT cytotoxicity assay, SW620 cells
Description: (§1) The cytotoxic activity of synthesized peptides was tested on […] human tumor cell lines namely PA-1 (ovary), SW620 (colon) HuTu80 (duodenum), L132 (lung), U87MG (glioblastoma), KB (oral), MIAPaCa2(pancreas), A549(non small cell lung) and HT-29(colon). The tumor cells were collected at exponential growth phase and resuspended in medium (1.5×10^6 cells/ml in RPMI 1640 containing 10% FBS). 150 μl of medium was added to the wells of a 96-well tissue culture plate (Nunc, Denmark) followed by 30 μl of cell suspension. The plate was left in incubator (37° C., 5% CO2) overnight. 20 μl of the peptide (100 pM to 1 uM concentration) was added to marked wells of the 96-well plate. Each concentration was plated in triplicates. 20 μl of medium alone was added to control wells while wells without cells served as blanks. A total volume of 200 μl was ensured in each well and plate was left in incubator (37° C., 5% CO2). After 72 hours of incubation an MTT assay was performed and percentage cytotoxicity was calculated with respect to control cells. Following Tables show the maximum cytotoxicity achieved on various cell lines.

[2] = test system: KB (oral); assay: MTT cytotoxicity assay, KB cells
Description: as §1

[3] = test system: PA-1 (ovary); assay: MTT cytotoxicity assay, PA-1 cells
Description: as §1

[4] = test system: L132 (lung); assay: MTT cytotoxicity assay, L132 cells
Description: as §1

[5] = test system: U87MG (glioblastoma); assay: MTT cytotoxicity assay, U87MG cells
Description: as §1

[6] = test system: HuTu80 (duodenum); assay: MTT cytotoxicity assay, HuTu80 cells
Description: as §1

SMILES: CC[C@H](C)[C@H](NC(=O)[C@H](CO)NC(=O)[C@H](CC(N)=O)NC(=O)[C@H](CC(C)C)NC(=O)[C@H](Cc1ccc(O)cc1)NC(=O)[C@H](CCCCN)NC(=O)[C@H](CCCCN)NC(=O)[C@@H](NC(=O)[C@H](C)NC(=O)[C@H](CC(C)C)NC(=O)[C@H](CCC(N)=O)NC(=O)[C@H](CCCCN)NC(=O)[C@H](CCCNC(=N)N)NC(=O)[C@H](CC(C)C)NC(=O)[C@H](CCCNC(=N)N)NC(=O)[C@@H](NC(=O)[C@H](Cc1ccc(O)cc1)NC(=O)[C@H](CC(N)=O)NC(=O)[C@H](CC(=O)O)NC(=O)[C@@H](NC(=O)[C@@H](Cc1ccc(Cl)cc1)NC(=O)[C@@H](NC(=O)C(CC)(CC)NC(=O)[C@H](CC(=O)O)NC(=O)[C@H](CO)NC(=O)[C@@H](N)Cc1c[nH]cn1)C(C)C)[C@@H](C)O)[C@@H](C)O)C(C)C)C(=O)N[C@@H](CC(C)C)C(=O)N[C@@H](CC(N)=O)C(N)=O [SEQ ID NO: 3] (H-HSD[Deg]V[dPhe(4-Cl)]TDNYTRLRKQLAVKKYLNSILN-NH2)
- Percentage cytotoxicity ([1]; SW620, 100 pM): 15.9 ± 6.6%
- Percentage cytotoxicity ([1]; SW620, 1 nM): 29 ± 5.6%
- Percentage cytotoxicity ([1]; SW620, 10 nM): 27 ± 5.5%
- Percentage cytotoxicity ([1]; SW620, 100 nM): 22 ± 7.3%
- Percentage cytotoxicity ([1]; SW620, 1 μM): 16 ± 3.4%
- Percentage cytotoxicity ([2]; 100 pM): 13 ± 8.5%
- Percentage cytotoxicity ([2]; 1 nM): 24.5 ± 9.5%
- Percentage cytotoxicity ([2]; 10 nM): 22 ± 8.2%
- Percentage cytotoxicity ([2]; 100 nM): 18 ± 8.5%
- Percentage cytotoxicity ([2]; 1 μM): 14 ± 3.4%
- Percentage cytotoxicity ([3]; PA1, 100 pM): 15 ± 4.5%
- Percentage cytotoxicity ([3]; PA1, 1 nM): 29 ± 5.8%
- Percentage cytotoxicity ([3]; PA1, 10 nM): 22 ± 4.5%
- Percentage cytotoxicity ([3]; PA1, 100 nM): 23.5 ± 5.2%
- Percentage cytotoxicity ([3]; PA1, 1 μM): 22.1 ± 4.5%
- Percentage cytotoxicity ([4]; L132, 100 pM): 14 ± 5.6%
- Percentage cytotoxicity ([4]; L132, 1 nM): 23 ± 3.5%
- Percentage cytotoxicity ([4]; L132, 10 nM): 29 ± 6.7%
- Percentage cytotoxicity ([4]; L132, 100 nM): 26 ± 6.5%
- Percentage cytotoxicity ([4]; L132, 1 μM): 14 ± 6.5%
- Percentage cytotoxicity ([5]; 100 pM): 11 ± 7.8%
- Percentage cytotoxicity ([5]; 1 nM): 16 ± 6.6%
- Percentage cytotoxicity ([5]; 10 nM): 28 ± 7.5%
- Percentage cytotoxicity ([5]; 100 nM): 26 ± 6.7%
- Percentage cytotoxicity ([5]; 1 μM): 25 ± 4.6%
- Percentage cytotoxicity ([6]; HuTu80, 100 pM): 14 ± 7.8%
- Percentage cytotoxicity ([6]; HuTu80, 1 nM): 29 ± 6.2%
- Percentage cytotoxicity ([6]; HuTu80, 10 nM): 28 ± 4.7%
- Percentage cytotoxicity ([6]; HuTu80, 100 nM): 24 ± 7.8%
- Percentage cytotoxicity ([6]; HuTu80, 1 μM): 14.5 ± 7.1%

— US6489297B1, “Vasoactive intestinal peptide analogs” (Dabur Research Foundation, priority 2000, dated 2002)
